For series [1], the target named is hERG channel (Homo sapiens (Human), UniProt Q12809). The text has this: Fluorescence polarization (FP) readout technology is based on the observation that when a small fluorescent molecule (the tracer) is excited by the polarized light, the emitted light is largely depolarized because of the rapid rotation of the molecule in the solution during its fluorescence lifetime. The hERG predictor assay provides valuable information about the possible binding of test compounds to the potassium channel and potential QT prolongation on […].
All experiments were performed using the Predictor™ hERG Fluorescence Polarization Assay in accordance with the manufacturer's protocol PV5365 (Invitrogen, Carlsbad, Calif.).
The hERG reaction was performed by incubating the tracer and membranes with hERG channel for 2-4 hours in the solution. The fluorescence polarization was maximal when nothing interfered with the reaction of the tracer and hERG membranes (minimal tracer rotation). But when a tested compound competed with the tracer for the hERG channel, the polarization of emitted light lowered due to the ability of free unbound tracer to rotate rapidly in the solution.
All test points for the compounds were performed in quadruplicates. Three dilutions of the tested compounds were assessed—1 μM, 5 μM and 20 μM.

Series [2] relates to HeLa EGFP-Parkin cells. As to the kind of experiment: Co-recruitment of autophagy receptors to mitochondria (immunofluorescence). The series is classed as cell-based, human. On the procedure:
Cells were grown on poly-D-lysine coated glass coverslips. After treatments, cells were fixed in 4% paraformaldehyde and permeabilized using 1% Triton X-100, for each 10 min. Cells were blocked in 10% goat serum. Primary and secondary antibodies were diluted in 1% BSA/PBS and each incubated for 1 h at RT. Primary antibodies used: DNA (mouse, 1:250, Progen, AC-30-10), NBR1 (mouse, 1:100, Abnova H00004077-M01), NDP52 (rabbit, 1:400, Proteintech, 12229-1-AP), OPTN (mouse, 1:200, Santa Cruz, sc-166576), p62 (mouse, 1:400, BD Biosciences, 610832), pSer65-Ub (rabbit, 1:500, in-house (Fiesel et al., EMBO Reports (2015) 16:1114-30; Fiesel et al., (2015) Autophagy 11:2125-2126)), TAX1BP1 (rabbit, 1:200, Cell Signaling, #5105), TOM20 (mouse, 1:100, Santa Cruz, sc-17764), TOM20 (rabbit, 1:2000, Proteintech, 11802-1-AP). Secondary antibodies conjugated to AlexaFluor-568 or-647 (Invitrogen) were diluted 1:1000. Hoechst 33342 (Invitrogen) was diluted 1:5000 to counterstain the nuclei.
To validate the activation of Parkin further downstream in the pathway, co-recruitment of endogenous autophagy receptors to mitochondria in HeLa EGFP-Parkin cells was analyzed. These dual adaptors recognize pSer65-Ub chains on damaged mitochondria and facilitate their engulfment by autophagosomal membrane via their interaction with LC3 proteins (Lazarou et al., Nature (2015) 524:309-14; Heo et al., Mol. Cell (2015) 60:7-20).

In series [3] the test system is HeLa cells. As to the kind of experiment: Mitochondrial membrane potential (JC-10 assay). The series is classed as cell-based, human. The settings on record: 5 μM, compared to DMSO control. On the procedure:
In order to exclude compounds that diminish the mitochondrial membrane potential, a JC-10 assay was used. HeLa cells were plated in 384-well plates and treated with different doses of CCCP or with 5 μM of Compounds 1, 2, 3, 4, and 31 as indicated for 2 h. The JC-10 dye was added to the live cells and cells are stained for 45 minutes. The plates were then measured with a fluorescent plate reader. JC-10 is a mitochondrial dye that emits red fluorescence in the presence of mitochondrial membrane potential. The fluorescence will change to green in the absence of mitochondrial membrane potential. […] Shown are average values of 3 independent experiments. Statistical analysis was performed by one-way ANOVA with Tukey's post-hoc test. ***, p<0.0005.
Mitochondrial depolarization was assessed using a JC10 assay kit (Sigma, MAK159). HeLa Parkin cells were seeded with […] in 20 μL volume into 384-well plates with clear bottom. The following day 5 μL of CCCP or compounds were added as 5× solutions. Equal volume of DMSO served as a negative control. Cells were incubated for 4 h before 12.5 μL of JC10 dye diluted in buffer A was added to the wells. One hour later the reaction was stopped with 12.5 μL of buffer B and the plate was measured immediately on a Spectramax M5 plate reader (Molecular devices) with bottom read using dual fluorescence (green: Ex 485 nm, Em 538 nm, cut-off at 515 nm; red: Ex 544 nm, Em 590 nm, cut-off at 570 nm). Mitochondrial depolarization was assessed by building the green to red ratio.

In series [4] the test system is wp2[pKM101]+wp2 uvrA mixed 1:2. As to the kind of experiment: Ames Test, E. coli. An excerpt:
(§1) The test used amino acid-dependent strains of Salmonella typhimurium and Escherichia coli to detect point mutations which involved substitution, addition or deletion of one or a few DNA base pairs. Point mutations were introduced in the histidine (Salmonella typhimurium) or the tryptophan (Escherichia coli) operon, making the tester strains incapable of producing these amino acids. The test detected mutations that revert the mutations present in the bacteria, restoring the functional capability to synthesize histidine or tryptophan. The revertant bacteria were detected by the ability to grow in the absence of the amino acid required by the parent test strain. A mutagenic potential of a tested compound was assessed by exposing these bacterial strains to different concentrations of the compounds and estimating number of revertant colonies grown in the absence (trace quantities) of the amino acid.
(§2) DMSO was used as the negative control.
(§3) For each experiment, tester strain cultures were grown overnight in Oxoid nutrient broth #2 at 37° C. with shaking at 235 rpm to a density of 1-2×10^9 colony forming units/mL (OD540˜2).
(§4) The tester strain (10 μL of night culture) was mixed with the test agent (10 µL of the DMSO stock) and GM liquid medium (30 μL). The obtained mixture was incubated at room temperature for 5 min in a sterile 1.5 mL tube. Then, to the tube was added 200 μL of molten top agar stored at 44° C. to prevent solidifying. After mixing with a pipette, the mixture was poured onto the surface of a GM agar plate (2.0 mL of GM agar per plate). After solidifying the top agar, the plate was inverted and incubated at 37° C. for 48 hours. Then, results were expressed as number of revertant colonies per plate.

Series [5] concerns TA 1535.
Description: as §1, §2, §3, §4

For series [6], the system named is TA 98. As to the kind of experiment: Ames Test, strain TA 98.
Description: as §1, §2, §3, §4

Setting [7] is: 50 μM (row printed 100; conc. column shifted).
[8] abbreviates: 100 μM (row printed 200; conc. column shifted).
Where [9] appears, read: 200 μM (row printed 0; conc. column shifted).
Where [10] appears, read: TA 98, 200 μM, baseline = mean of negative control + SD.

Structures are written as SMILES. Read-outs that look alike come from different tables or passages of the source.

hERG channel, sequence (Q12809 whole entry): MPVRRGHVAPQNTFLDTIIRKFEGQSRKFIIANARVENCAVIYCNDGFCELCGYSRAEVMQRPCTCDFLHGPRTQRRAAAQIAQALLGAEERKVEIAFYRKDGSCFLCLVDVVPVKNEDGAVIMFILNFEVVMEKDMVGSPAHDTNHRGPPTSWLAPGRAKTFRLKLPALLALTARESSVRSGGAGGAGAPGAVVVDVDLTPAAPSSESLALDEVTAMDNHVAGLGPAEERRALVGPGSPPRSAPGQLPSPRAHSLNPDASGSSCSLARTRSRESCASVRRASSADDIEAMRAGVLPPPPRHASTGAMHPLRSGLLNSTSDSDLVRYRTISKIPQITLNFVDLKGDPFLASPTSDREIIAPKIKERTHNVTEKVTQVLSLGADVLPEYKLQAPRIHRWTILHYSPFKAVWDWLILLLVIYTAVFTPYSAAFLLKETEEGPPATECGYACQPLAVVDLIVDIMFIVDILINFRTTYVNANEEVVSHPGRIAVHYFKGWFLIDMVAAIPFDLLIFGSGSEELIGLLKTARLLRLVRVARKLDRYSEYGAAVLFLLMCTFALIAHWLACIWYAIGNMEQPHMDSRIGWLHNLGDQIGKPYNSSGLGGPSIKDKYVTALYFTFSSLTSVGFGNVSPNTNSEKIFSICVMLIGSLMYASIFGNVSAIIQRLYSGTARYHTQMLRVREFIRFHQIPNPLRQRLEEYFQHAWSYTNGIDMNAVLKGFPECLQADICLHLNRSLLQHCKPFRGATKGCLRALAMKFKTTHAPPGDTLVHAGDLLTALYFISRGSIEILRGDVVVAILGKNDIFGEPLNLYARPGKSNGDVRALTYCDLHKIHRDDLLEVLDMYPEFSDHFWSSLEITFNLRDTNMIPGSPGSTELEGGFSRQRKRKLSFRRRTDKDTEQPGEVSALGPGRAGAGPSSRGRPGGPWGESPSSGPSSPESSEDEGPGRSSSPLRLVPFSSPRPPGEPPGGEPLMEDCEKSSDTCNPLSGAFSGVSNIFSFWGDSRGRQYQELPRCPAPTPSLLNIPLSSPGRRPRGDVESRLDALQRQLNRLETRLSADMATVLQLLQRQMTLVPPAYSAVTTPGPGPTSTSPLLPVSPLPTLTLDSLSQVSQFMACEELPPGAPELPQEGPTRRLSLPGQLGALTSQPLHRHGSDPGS

In the case of `O=C(Cn1cnc2c1CCCC2)Nc1ccc(-c2ccccc2)cc1` [Compound 1], the “Binding values, % Mean” value stood at 83% in series [1] (1 μM), 99% in series [1] (5 μM) and 103% in series [1] (20 μM). The “co-localization of OPTN, NBR1, NDP52, p62 and TAX1BP1 with Parkin on damaged mitochondria” value (from here on “co-localization of OPTN, NBR1, NDP52”) in series [2] is recorded as “increased co-localization”. Besides, the “effect on JC-10 (mitochondrial depolarization)” value (shortened to “effect”) in series [3] was “did not show an effect”. In addition, the “Fold increase (over baseline)” value stood at 0 in series [4] (setting [7]); 0 in series [4] (setting [8]); 0 in series [4] (setting [9]); 0.23 in series [5] (TA 1535, 50 μM); 0 in series [5] (TA 1535, 100 μM); 0 in series [5] (TA 1535, 200 μM). For the same compound, the “Fold increase (over baseline)” value in series [6] (TA 98, 50 μM) is recorded as 0.46; in series [6] (TA 98, 100 μM), 0.2; in series [6] (setting [10]), 0. For the same compound, the “Mean ± SD” value in series [4] (setting [7]) is recorded as 0 ± 0 revertant colonies per plate; in series [4] (setting [8]), 0 ± 0 revertant colonies per plate; in series [4] (setting [9]) it was 0 ± 0 revertant colonies per plate; in series [5] (TA 1535, 50 μM) it was 1 ± 0 revertant colonies per plate; in series [5] (TA 1535, 100 μM), 0 ± 0 revertant colonies per plate; in series [5] (TA 1535, 200 μM), 0 ± 0 revertant colonies per plate. Moreover, the “Mean ± SD” value is recorded as 1.5 ± 0.7 revertant colonies per plate in series [6] (TA 98, 50 μM); 0.5 ± 0.7 revertant colonies per plate in series [6] (TA 98, 100 μM); 0 ± 0 revertant colonies per plate in series [6] (TA 98, 200 μM).

Consider `CC(C)c1nccn1CC(=O)Nc1ccc(-c2ccccc2)cc1` [Compound 2], for which the results for the “Binding values, % Mean” value in series [1] (1 μM), in series [1] (5 μM) and in series [1] (20 μM) were 47%, 74% and 91%, respectively. In addition, in series [2], the “co-localization of OPTN, NBR1, NDP52” value is given as “increased co-localization”. Moreover, in series [3], the “effect” value is recorded as “did not show an effect”. For the same compound, the “Fold increase (over baseline)” value in series [4] (setting [7]) came out at 0.63; in series [4] (setting [8]) it was 0.38; in series [4] (setting [9]), 0.5; in series [5] (TA 1535, 50 μM) it was 0; in series [5] (TA 1535, 100 μM), 0.68; in series [5] (TA 1535, 200 μM) it was 0.23. Also, the “Fold increase (over baseline)” value is 0.3 in series [6] (TA 98, 50 μM); 0.2 in series [6] (TA 98, 100 μM); 0.2 in series [6] (setting [10]). Further, the “Mean ± SD” value in series [4] (setting [7]) is given as 2.5 ± 2.12 revertant colonies per plate; in series [4] (setting [8]), 1.5 ± 0.7 revertant colonies per plate; in series [4] (setting [9]), 2 ± 2.82 revertant colonies per plate; in series [5] (TA 1535, 50 μM) it was 0 ± 0 revertant colonies per plate; in series [5] (TA 1535, 100 μM) it was 3 ± 0 revertant colonies per plate; in series [5] (TA 1535, 200 μM), 1 ± 0 revertant colonies per plate. Moreover, the “Mean ± SD” value is given as 1 ± 1.41 revertant colonies per plate in series [6] (TA 98, 50 μM); 0.5 ± 0.7 revertant colonies per plate in series [6] (TA 98, 100 μM); 0.5 ± 0.7 revertant colonies per plate in series [6] (TA 98, 200 μM).

As to `CC(C)(C)Sc1ccc(NC(=O)Cn2ccnc2)cc1` [Compound 3], the “Binding values, % Mean” value came to 41% in series [1] (1 μM), 115% in series [1] (5 μM) and 99% in series [1] (20 μM). The “co-localization of OPTN, NBR1, NDP52” value in series [2] was “increased co-localization”. The “effect” value in series [3] was “did not show an effect”. Besides, the “Fold increase (over baseline)” value in series [4] (setting [7]) is listed as 1; in series [4] (setting [8]), 1.75; in series [4] (setting [9]), greater than 75; in series [5] (TA 1535, 50 μM), 0.34; in series [5] (TA 1535, 100 μM) it was 0; in series [5] (TA 1535, 200 μM), greater than 34. For the same compound, the “Fold increase (over baseline)” value is 0.46 in series [6] (TA 98, 50 μM); 0.2 in series [6] (TA 98, 100 μM); greater than 312 in series [6] (setting [10]). Further, the “Mean ± SD” value in series [4] (setting [7]) is 4 ± 0 revertant colonies per plate; in series [4] (setting [8]), 7 ± 0 revertant colonies per plate; in series [4] (setting [9]), >300 revertant colonies per plate; in series [5] (TA 1535, 50 μM), 1.5 ± 0.7 revertant colonies per plate; in series [5] (TA 1535, 100 μM), 0 ± 0 revertant colonies per plate; in series [5] (TA 1535, 200 μM), >150 revertant colonies per plate. For the same compound, the “Mean ± SD” value was 1.5 ± 0.7 revertant colonies per plate in series [6] (TA 98, 50 μM); 0.5 ± 0.7 revertant colonies per plate in series [6] (TA 98, 100 μM); >1000 revertant colonies per plate in series [6] (TA 98, 200 μM). Moreover, the “mutagenic activity” value is recorded as “mutagenic activity” in series [4] (200 μM); “mutagenic activity” in series [5] (TA 1535, 200 μM); “mutagenic activity” in series [6] (TA 98, 200 μM).

For the origin of these results see patent publication US11401255B2, “Small molecule activators of Parkin enzyme function” (Mayo Foundation for Medical Education and Research, priority 2016, dated 2022).
